Assay results from patent US9133224B2, “Macrocyclic kinase inhibitors” (OSI Pharmaceuticals, LLC, priority 2010, dated 2015).
Where two headings read alike, the source gives them in different places.

What was measured:
[1] = target: T1, GST-tagged full-length FAK enzyme (PTK2) (Homo sapiens, UniProt Q05397); assay: Biochemical Omnia Assay (FAK)
T1 construct: GST-tagged full-length FAK enzyme (PTK2, Invitrogen PV4085); GST; purchased Invitrogen PV4085
Method: Biochemical Omnia Assay Protocol
The Omnia Assay (Invitrogen) has been optimized for GST-tagged full-length FAK enzyme (PTK2, Invitrogen PV4085).
All compound concentrations were assayed in duplicate. Initial compound dilutions were prepared at 100× concentration in 100% DMSO from a 10 mM stock solution. Compounds were further diluted 1:25 in assay buffer resulting in a 4× concentrated solution.
In running the assay, 5 μL of the above 4× concentrated compound solution (or 4% DMSO for positive controls) was added to the assay plate followed by 5 μL of a solution containing peptide (40 μM) and ATP (200 μM) in assay buffer. The reaction was initiated by the addition of 10 μL of FAK (50 nM) in assay buffer, or assay buffer alone for negative controls. The increase in fluorescence due to peptide phosphorylation was monitored continuously as a function of time using a Spectramax M5 plate reader (Molecular Devices) equipped with SoftMax Pro 5.2 software.
IC50 values were determined from the slopes of the linear progress curves by non-linear curve-fitting using GraphPad Prism 5 (GraphPad Software, Inc.).

FAK = target: T2, FAK (Homo sapiens, UniProt Q05397); assay: Cell-based capture ELISA for inhibition of FAK autophosphorylation [pY397] in U87MG cells
T2 construct: endogenous in cells; host or cells: U87MG glioblastoma cells (ATCC HTB-14)
T2 sequence (Q05397 whole entry): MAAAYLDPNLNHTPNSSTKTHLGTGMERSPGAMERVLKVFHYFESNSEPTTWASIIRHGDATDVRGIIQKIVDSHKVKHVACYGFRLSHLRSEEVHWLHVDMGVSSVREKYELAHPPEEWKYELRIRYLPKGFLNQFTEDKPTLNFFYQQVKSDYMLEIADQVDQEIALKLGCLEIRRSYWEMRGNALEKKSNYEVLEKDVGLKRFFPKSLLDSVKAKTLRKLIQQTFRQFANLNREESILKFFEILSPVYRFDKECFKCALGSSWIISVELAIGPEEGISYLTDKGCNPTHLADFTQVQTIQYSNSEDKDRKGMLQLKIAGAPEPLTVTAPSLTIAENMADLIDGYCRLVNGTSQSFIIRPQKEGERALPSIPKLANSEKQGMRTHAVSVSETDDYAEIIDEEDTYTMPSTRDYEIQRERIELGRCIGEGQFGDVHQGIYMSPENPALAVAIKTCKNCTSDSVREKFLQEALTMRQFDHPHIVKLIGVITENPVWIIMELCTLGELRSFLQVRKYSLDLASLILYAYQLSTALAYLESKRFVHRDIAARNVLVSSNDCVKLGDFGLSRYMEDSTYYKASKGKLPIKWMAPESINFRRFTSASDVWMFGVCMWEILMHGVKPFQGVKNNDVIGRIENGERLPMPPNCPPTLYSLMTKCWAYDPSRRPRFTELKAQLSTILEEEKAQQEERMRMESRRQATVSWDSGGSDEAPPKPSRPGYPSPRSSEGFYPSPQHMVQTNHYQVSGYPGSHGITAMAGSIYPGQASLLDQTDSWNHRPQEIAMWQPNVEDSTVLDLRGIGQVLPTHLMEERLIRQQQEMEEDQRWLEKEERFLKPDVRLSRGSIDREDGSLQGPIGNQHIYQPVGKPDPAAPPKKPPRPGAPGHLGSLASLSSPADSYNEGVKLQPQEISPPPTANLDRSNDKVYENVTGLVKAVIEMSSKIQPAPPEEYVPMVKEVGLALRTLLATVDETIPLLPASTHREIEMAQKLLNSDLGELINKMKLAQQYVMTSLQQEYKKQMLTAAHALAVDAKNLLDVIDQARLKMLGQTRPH
Method: Cell-Based Assays for Inhibition of FAK Autophosphorylation: MiaPaCa2 and U87MG
The ability of compounds to inhibit FAK autophosphorylation was determined in a cell-based capture ELISA assay using U87MG glioblastoma cells (ATCC, Cat # HTB-14) and the FAK [pY397]ELISA kit from Invitrogen (KHO0441). The assay determines the ability of compounds to block endogenous autophosphorylation of FAK stimulated by fibronectin. Cells plated on fibronectin coated 96-well plate were incubated with compounds at various concentrations in the complete growth medium for 2 h. Cell lysates were then prepared and FAK protein was captured onto a FAK antibody-coated 96-well ELISA plate. The phosphotyrosine content of FAK protein was then monitored by quantitation of degree of binding of an antibody that recognizes only the phosphorylated FAK at Y397 within the captured protein.
Reagents Provided in Biosource FAK [pY397]
Cultures of U87MG cells growing in MEM (Earles) containing non-essential amino acids, sodium pyruvate (1 mM), […] (1%) and 10% fetal bovine serum were detached by trypsin-EDTA and suspended in cell growth medium. Cells were then plated onto fibronectin (600 ng/well)-coated 96-well flat bottom plates at 1.7×10^4 cells per well in 60 uL cell growth medium and incubated overnight at 37° C. in a CO2 incubator.
Compound dilutions were prepared from 10 mM DMSO stocks by dilution in cell growth medium, the final concentration of DMSO in the assay being 0.6%. […] The cells were then incubated with compounds at 37° C. for 2 h. The medium was removed by aspiration and cells were lysed by addition of 20 uL of ice-cold cell lysis buffer per well. The plates were kept on ice for 20 min and 50 uL of standard diluent was added to each well. 50 uL of cell lysate from each well was transferred to respective wells in an assay plate and 50 uL of detection antibody was added to all wells except H1-H6 which were no antibody control wells. Capture assay plates were incubated overnight in a cold room.
Following incubation of the cell lysates and detection antibodies in the ELISA plate, the wells were washed 4 times with 120 uL of wash buffer (1×), then 100 uL of diluted HRP conjugated antibody (1:100 dil in diluent) was added to each well, and the plate was incubated at RT for 30 min. The wells were then washed for 4 times with 120 uL of wash buffer (1×) and 100 uL of chromogen was added to each well and incubated in the dark at RT for 5-10 min. 100 uL of stop solution was added to each well and the absorbance measured at 450 nm, 0.1 s.
Comparison of the assay signals obtained in the presence of compound with those of positive and negative controls (cells with no compound and no detection antibody being added), allows degree of inhibition of phospho-FAK [Y397] to be determined over a range of compound concentrations. […] The assay as described above was modified to determine the effect of inclusion of 50% (v/v) mouse or human plasma. In this assay, the compound plate was prepared as 2× concentration in 100 uL of 100% mouse or human plasma, and 60 uL of this was added to 60 uL of culture medium and incubated at 37° C. incubator for 2 h. The rest of the assay was carried out as described above.

[2] = 50% (v/v) human plasma, mean IC50, read-out: FAK Activity Mechanistic (U87MG) HP
[3] = no plasma present, mean IC50, read-out: FAK Activity Mechanistic (U87MG) NP
[4] = mean IC50, [ATP] = 50uM, read-out: FAK Activity Biochemical OMNIA, [ATP] = 50uM
[5] = 50% (v/v) mouse plasma, mean IC50, read-out: FAK Activity Mechanistic (U87MG) MP

T1 sequence (Q05397 whole entry): as above

| Structure (SMILES) | IC50 [1] [nM] | IC50 (FAK; [2]) [nM] | IC50 (FAK; [3]) [nM] | IC50 [1, 4] [nM] | IC50 (FAK; [5]) [nM] | IC50 (FAK; FAK Activity Mechanistic (U87MG) MP, 50% (v/v) mouse plasma, mean IC50) [nM] |
| --- | --- | --- | --- | --- | --- | --- |
| CCNC(=O)c1nc2ccc1Nc1nc(ncc1C(F)(F)F)Nc1ccc(cc1OC)CP(=O)(OCC)OCC1(COC1)Cn1cc-2cn1 (racemic) [Example 45] | < 400 | < 400 | < 400 |  |  |  |
| CCOP1(=O)Cc2ccc(cc2)Nc2ncc(C(F)(F)F)c(n2)Nc2ccc(nc2C(=O)NC)-c2cnn(c2)CCCO1 (racemic) [Example 13] |  | < 400 | < 400 | < 400 |  |  |
| CCOP1(=O)Cc2ccc(cc2)Nc2ncc(C(F)(F)F)c(n2)Nc2ccc(nc2C(=O)NC)-c2cnn(c2)CCCCO1 (centres unmarked) [Example 16, 11-ethoxy-N-methyl-21-(trifluoromethyl)-10-oxa-4,5,17,19,23,26,29-heptaaza-11-phosphapentacyclo[22.2.2.2^13,16.1^2,5.1^18,22]dotriaconta-1(26),2(32),3,13,15,18(29),19,21,24,27,30-undecaene-25-carboxamide 11-oxide] | < 400 | < 400 | < 400 |  |  |  |
| CCOP1(=O)Cc2ccc(c(F)c2)Nc2ncc(C(F)(F)F)c(n2)Nc2ccc(nc2C(=O)NC)-c2cnn(c2)CCCO1 (racemic) [Example 22] | < 400 | < 400 | 400 to 4000 |  |  |  |
| CCOP1(=O)Cc2ccc(c(OC)c2)Nc2ncc(C(F)(F)F)c(n2)Nc2ccc(nc2C(=O)NC)-c2cnn(c2C)CCCO1 (single isomer, unassigned) [Example 35B] |  | < 400 | < 400 | < 400 |  |  |
| CCOP1(=O)Cc2ccc(c(OC)c2)Nc2ncc(C(F)(F)F)c(n2)Nc2ccc(nc2C(=O)NC)-c2cnn(c2Cl)CCCO1 (racemic) [Example 51] | < 400 | < 400 | < 400 |  | 400 to 4000 |  |
| CCOP1(=O)Cc2ccc(c(OC)c2)Nc2ncc(C(F)(F)F)c(n2)Nc2ccc(cc2C(=O)NOC)-c2cnn(c2)CCCO1 (racemic) [Example 26] |  | < 400 | < 400 | < 400 | 400 to 4000 |  |
| CCOP1(=O)Cc2ccc(c(OC)c2)Nc2ncc(C(F)(F)F)c(n2)Nc2ccc(cc2C(=O)NC)-c2cnn(c2)CCCCO1 (racemic) [Example 14] |  | < 400 | < 400 | < 400 |  |  |
| CCOP1(=O)Cc2ccc(c(OC)c2)Nc2ncc(C(F)(F)F)c(n2)Nc2ccc(nc2C(=O)NC)-c2cn(nc2C#N)CCCO1 (racemic) [Example 52] | < 400 |  | < 400 |  |  |  |
| CCOP1(=O)Cc2ccc(c(OC)c2)Nc2ncc(C(F)(F)F)c(n2)Nc2ccc(nc2C(=O)NC)-c2cc(C(=O)O)n(c2)CCCO1 (racemic) [Example 39] | < 400 |  | 400 to 4000 |  |  | > 4000 |
| CCOP1(=O)Cc2ccc(c(OC)c2)Nc2ncc(C(F)(F)F)c(n2)Nc2ccc(cc2C(=O)NC)-c2cnn(c2)CCCO1 (racemic) [Example 4] | < 400 | < 400 | < 400 |  |  |  |
| CCOP1(=O)Cc2ccc(c(OC)c2)Nc2ncc(C(F)(F)F)c(n2)Nc2ccc(c(C)c2C(=O)NC)-c2cnn(c2)CCCO1 (racemic) [Example 29] | < 400 |  | 400 to 4000 |  | > 4000 |  |
| CCOP1(=O)Cc2ccc(c(OC)c2)Nc2ncc(C(F)(F)F)c(n2)Nc2ccc(c3c2C(=O)N(C)C3)-c2cnn(c2)CCCO1 (racemic) [Example 1] | < 400 | < 400 | < 400 |  |  |  |
| CCOP1(=O)Cc2ccc(c(OC)c2)Nc2ncc(C(F)(F)F)c(n2)Nc2ccc(nc2C(=O)NC)-c2cnn(c2)C(C)(C)CCO1 (single isomer, unassigned) [Example 50A] |  | 400 to 4000 | < 400 | < 400 |  |  |
| CCOP1(=O)Cc2ccc(c(OC)c2)Nc2ncc(C(F)(F)F)c(n2)Nc2ccc(nc2C(=O)NC)-c2cnn(c2)CCCO1 (single isomer, unassigned) [Example 6B] | < 400 | < 400 | < 400 |  |  |  |
| CCOP1(=O)Cc2ccc(c(OC)c2)Nc2ncc(C(F)(F)F)c(n2)Nc2ccc(nc2C(=O)NC)-c2cn(nc2Cl)CCCO1 (racemic) [Example 49] |  | < 400 | < 400 | < 400 | 400 to 4000 |  |
| CCOP1(=O)Cc2cc(OC)c(cc2Cl)Nc2ncc(C(F)(F)F)c(n2)Nc2ccc(nc2C(=O)NC)-c2cnn(c2)CCCO1 (single isomer, unassigned) [Example 56A] | < 400 | > 4000 | < 400 |  | 400 to 4000 |  |
| CCCP1(=O)Cc2ccc(c(OC)c2)Nc2ncc(C(F)(F)F)c(n2)Nc2ccc(nc2C(=O)NC)-c2cnn(c2)CCCO1 (racemic) [Example 37] |  | < 400 | < 400 | < 400 | 400 to 4000 |  |
| CCOP1(=O)Cc2ccc(c(OC)c2)Nc2ncc(C(F)(F)F)c(n2)Nc2ccc(nc2C(=O)NC)-c2cnn(c2C)CCCO1 (single isomer, unassigned) [Example 35A] |  | 400 to 4000 | < 400 | < 400 |  |  |
| CCCP1(=O)Cc2ccc(c(OC)c2)Nc2ncc(C(F)(F)F)c(n2)Nc2ccc(cc2C(=O)NC)-c2cnn(c2)CCCO1 (racemic) [Example 66] |  | < 400 | < 400 | < 400 | < 400 |  |
| CCO[P@@]1(=O)Cc2ccc(c(OC)c2)Nc2ncc(C(F)(F)F)c(n2)Nc2cc(F)c(cc2C(=O)NC)-c2cnn(c2)CCCO1.CCO[P@]1(=O)Cc2ccc(c(OC)c2)Nc2ncc(C(F)(F)F)c(n2)Nc2cc(F)c(cc2C(=O)NC)-c2cnn(c2)CCCO1 (mixture of isomers) [Example 7] |  | < 400 | < 400 | < 400 | < 400 |  |
| CCOP1(=O)Cc2ccc(c(OC)c2)Nc2ncc(C(F)(F)F)c(n2)Nc2ccc(nc2C(=O)NC)-c2cnn(c2)C(C)(C)CCO1 (racemic) [Example 50] |  | < 400 | < 400 | < 400 |  |  |
| CCOP1(=O)Cc2ccc(c(OC)c2)Nc2ncc(C(F)(F)F)c(n2)Nc2cc(F)c(c3c2C(=O)N(C)C3)-c2cnn(c2)CCCO1 (racemic) [Example 31] | < 400 |  | < 400 |  |  |  |
| CCOP1(=O)Cc2ccc(c(OC)c2)Nc2ncc(C(F)(F)F)c(n2)Nc2ccc(nc2C(=O)NC)-c2cn(nc2OC)CCCO1 (racemic) [Example 48] | < 400 | < 400 | < 400 |  | 400 to 4000 |  |
| CCOP1(=O)Cc2ccc(c(OC)c2)Nc2ncc(C(F)(F)F)c(n2)Nc2ccc(nc2C(=O)NC)-c2cnn(c2)CC(C)CO1 (single isomer, unassigned) [Example 18] |  | < 400 | < 400 | < 400 |  |  |
| CCOP1(=O)Cc2ccc(cc2)Nc2ncc(C(F)(F)F)c(n2)Nc2ccc(c3c2C(=O)N(C)C3)-c2cnn(c2)CCCO1 (racemic) [Example 2] | < 400 | < 400 |  |  |  |  |
